Results: patent publication US9481900B2, “Polypeptides having oxidoreductase activity and their uses” (Purac Biochem B.V., priority 2009, dated 2016)
In brackets after ≈: the same amount, converted by molar mass.

Experiments:
[1] = Solubility of FDCA in water; format: physicochemical
[2] = HMF oxidoreductase assay: FDCA formation in cell extract of P. putida_pJT'hmfH; format: biochemical
Protocol: Cell extracts of wildtype C. basilensis HMF14 or P. putida S12 transformants expressing HMF oxidoreductase were prepared from 50-ml late exponential growth phase cultures using MM supplemented with either 12 mM succinate (C. basilensis HMF14, OD600≈1.5) or 20 mM glucose (P. putida S12, OD600≈4). The cultures were harvested by centrifugation and resuspended in 3 ml of assay buffer. Cells were disrupted by sonication, using either a Branson sonifier (micro tip at pulse mode, output set at 3 and percentage duty cycle set to 40%; 3 cycles of sonication: 45 s of pulsing and 15 s pause) or a Sonics Vibra-Cell (Sonics&Materials, USA) (5 mm tapered microtip; pulse mode set to 1 min (0.5 s pulse, 2 sec pause). After sonication, debris was removed by centrifuging at 8228×g for 3 min at 4° C. The supernatant was desalted using a PD10 gel filtration column (GE healthcare) and used as cell extract for HMF oxidoreductase assays. Protein concentration was measured using Bradford reagent (Sigma-Aldrich).
HMF oxidoreductase assays were performed in cell extracts of wildtype C. basilensis HMF14 or P. putida S12 transformants expressing the C. basilensis HMF14 HMF oxidoreductase. As a negative control, wildtype P. putida S12 or a C. basilensis HMF14 mutant was used that carried a transposon insertion in the hmfH gene. […]

| Molecule | solubility ([1]; aqueous buffer, pH 1.0) [µg/mL] | solubility ([1]; pH 0.5, aqueous buffer) [µg/mL] | substrate oxidation by the enzyme [2] |
| --- | --- | --- | --- |
| O=C(O)c1ccc(C(=O)O)o1 [FDCA, 2,5-Furan-dicarboxylic acid] | ~1500 (≈ 9.61 mM) | ~400 (≈ 2.56 mM) |  |
| HmfH: 62 317 Da FAD-dependent GMC-family oxidoreductase of Cupriavidus basilensis HMF14, encoded by hmfH (protein, listed as Cupriavidus basilensis) MDTPRERFDYVIVGGGSAGCVLANRLSQDPAIRVALIEAGVDTPPDAVPAEILDSYPMPLFFGDRYIWPSLQARAVAGGRSKVYEQGRVMGGGSSINVQAANRGLPRDYDEWAASGASGWSWQDVLPYFRHLERDVDYGNSPLHGSHGPVPIRRILPQAWPPFCTEFAHAMGRSGLSALADQNAEFGDGWFPAAFSNLDDKRVSTAIAYLDADTRRRANLRIYAETTVRKLVVSGREARGVIAMRADGSRLALDAGEVIVSAGALQSPAILMRAGIGDAGALQALGIEVVADRPGVGRNLQDHPALTFCQFLAPQYRMPLSRRRASMTAARFSSGVPGGEASDMYLSSSTRAGWHALGNRLGLFFLWCNRPFSRGQVSLAGAQPDVPPMVELNLLDDERDLRRMVAGVRKLVQIVGASALHQHPGDFFPATFSPRVKALSRVSRGNVLLTELLGAVLDVSGPLRRSLIARFVTGGANLASLLTDESALEGFVRQSVFGVWHASGTCRMGAHADRSAVTDAAGRVHDVGRLRVIDASLMPRLPTANTNIPTIMLAEKIADTMQAERRAVRPASSEVAHPS |  |  | ability to oxidize HMF-acid to furan-dicarboxylic acid (FDCA) |
